Assay results reported in US12404267B2, “Solid state forms of n-[2-(2-{4-[2-(6,7-dimethoxy-3,4-dihydro-2(1H)-isoquinolinyl)ethyl]phenyl}-2H-tetrazol-5-yl)-4,5-dimethoxyphenyl]-4-oxo-4H-chromene-2-carboxamide and of its mesylate salt” (ASSIA CHEMICAL INDUSTRIES LTD., priority 2019, dated 2025).
Structures can show the parent of a compound that is named as a salt.

Test: Solubility of solid state forms of Encequidar mesylate
Assay type: physicochemical
Conditions: compared with amorphous Encequidar mesylate; no medium or method printed

Compound: COc1cc2c(cc1OC)CN(CCc1ccc(-n3nnc(-c4cc(OC)c(OC)cc4NC(=O)c4cc(=O)c5ccccc5o4)n3)cc1)CC2 [Form B of Encequidar mesylate]
- solubility: surprisingly greater than the solubility of amorphous Encequidar mesylate
